From patent publication US20230218721A1, “INCRETIN ANALOGUE, PREPARATION METHOD THEREFOR, AND USE THEREOF” (ZHEJIANG DOER BIOLOGICS CO., LTD., priority 2020, published 2023)
Where two headings read alike, the source gives them in different places. Starred links: 1 amine or outer side, 2 acyl side, 3 side chain; linkers in the order of their positions; H or OH if unused. Residues, ends and D or L forms follow the SMILES beside them. Groups on a side chain read outwards from the residue. *: point of attachment. γGlu = O=C(O)[C@H](CCC(=O)[*:2])N[*:1]; Palmitoyl = CCCCCCCCCCCCCCCC(=O)*

Columns and labels:
GLP-1R = molecular target: T1, GLP-1R (Homo sapiens, UniProt P43220); assay: GLP-1R agonist activity assay, luciferase reporter gene in stably transfected CHO-K1 cells; assay type: cell-based; settings: CRE-luciferase reporter, stimulation for 6 h
T1 construct: expressed in transfected cells
T1 sequence (P43220 24-463): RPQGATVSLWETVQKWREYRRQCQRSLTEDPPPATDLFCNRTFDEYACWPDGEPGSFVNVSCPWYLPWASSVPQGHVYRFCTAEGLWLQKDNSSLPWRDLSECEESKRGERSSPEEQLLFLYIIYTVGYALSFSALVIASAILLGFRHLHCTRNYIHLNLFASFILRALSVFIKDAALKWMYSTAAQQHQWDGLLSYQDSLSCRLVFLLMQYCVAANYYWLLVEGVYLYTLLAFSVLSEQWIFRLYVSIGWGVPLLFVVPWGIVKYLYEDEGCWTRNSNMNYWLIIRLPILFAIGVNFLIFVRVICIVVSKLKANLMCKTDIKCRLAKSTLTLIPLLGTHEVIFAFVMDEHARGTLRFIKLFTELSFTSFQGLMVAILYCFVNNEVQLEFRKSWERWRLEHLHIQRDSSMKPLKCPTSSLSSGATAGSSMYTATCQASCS
Text: GLP-1R agonist activity was detected using luciferase reporter gene assay (Jonathan W Day et, al.: Nat Chem Biol. 2009 October; 5 (10): 749-57). Humanized GLP-1R gene was cloned into mammalian cell expression plasmid pCDNA3.1 to construct recombinant expression plasmid pCDNA3.1-GLP-1R, and at the same time, luciferase full-length gene was cloned into pCRE plasmid to get pCRE-Luc recombinant plasmid. The pcDNA3.1-GLP-1R and pCRE-Luc plasmids were transfected into CHO-K1 cells at a molar ratio of 1:10, and the stably transfected cell strains were screened. Cells were cultured in a 9-cm cell culture dish with DMEM/F12 medium containing 10% FBS and 300 μg/ml G418. When the confluence reached about 90%, the culture supernatant was discarded. […] 2 ml DMEM/F12 medium containing 10% FBS and 300 μg/ml G418 was added for resuspension, and the number of cells was counted. […] Dulaglutide (Trade name: Trulicity®)) were diluted with DMEM/F12 medium containing 1% BSA to a series of defined concentration, 27 added into cell culture wells at 100 μl/well, and detected after stimulation for 6 h. The samples were detected according to the specification of Lucifersae reporter kit (Ray Biotech, 29 Cat: 68-LuciR-5200). […]

[1] = cited from earlier work
[2] = assay type: in vitro ADME, rat
Method: In this example, the serum stability of the incretin analogue […] was determined by the following steps: (1) The incretin analogues […] and the control (Dulaglutide) were formulated with 5 mM Tris-HCl, pH 8.5, and 0.02% TWEEN-80 solution into solutions at a concertration of 1.0 mg/ml, which were sterilized and filtered (0.22 μm, Millipore SLGP033RB), then diluted 10-fold with rat serum, mixed evenly and divided into sterile centrifuge tubes; […] (3) The GLP-1R agonist activity was detected.

Dulaglutide
EC50 (GLP-1R): 0.01 nM

Semeglutide
average clinical weight loss ([1]; 0.5 mg treatment group): 4.2 kg
average clinical weight loss ([1]; 1.0 mg treatment group): 5.5 kg

CCCCCCCCCCCCCCCC(=O)N[C@@H](CCC(=O)NCCCC[C@H](NC(=O)[C@H](CC(=O)O)NC(=O)[C@H](CO)NC(=O)[C@@H](NC(=O)[C@H](Cc1ccccc1)NC(=O)[C@@H](NC(=O)CNC(=O)[C@H](CCC(=O)O)NC(=O)[C@H](CO)NC(=O)[C@@H](N)Cc1ccc(O)cc1)[C@@H](C)O)[C@@H](C)O)C(=O)N[C@@H](CO)C(=O)N[C@@H](CCCCN)C(=O)N[C@@H](Cc1ccc(O)cc1)C(=O)N[C@@H](CC(C)C)C(=O)N[C@@H](CC(=O)O)C(=O)N[C@@H](CO)C(=O)N[C@@H](CCC(N)=O)C(=O)N[C@@H](C)C(=O)N[C@@H](C)C(=O)N[C@@H](CCC(N)=O)C(=O)N[C@@H](CC(=O)O)C(=O)N[C@@H](Cc1ccccc1)C(=O)N[C@H](C(=O)N[C@@H](CCC(N)=O)C(=O)N[C@@H](Cc1c[nH]c2ccccc12)C(=O)N[C@@H](CC(C)C)C(=O)N[C@@H](CC(C)C)C(=O)N[C@@H](C)C(=O)NCC(=O)NCC(=O)N1CCC[C@H]1C(=O)N[C@@H](CO)C(=O)N[C@@H](CO)C(=O)NCC(=O)N[C@@H](C)C(=O)N1CCC[C@H]1C(=O)N1CCC[C@H]1C(=O)N1CCC[C@H]1C(=O)N[C@@H](CO)C(N)=O)C(C)C)C(=O)O [P3YELAN] (H-YSEGTFTSDK([γGlu-Palmitoyl])SKYLDSQAAQDFVQWLLAGGPSSGAPPPS-NH2)
residual GLP-1R agonist activity over time in serum [2]: maintains a higher GLP-1R agonist activity in a long time
